From patent US9932630B2, “Method and system for decontaminating materials” (RASIRC, Inc., priority 2014, dated 2018)

Key:
E. coli = details: 25° C.
Source text: (§1) FIG. 4 schematic illustrates the apparatus used in this experiment. Equipment included: a purified clean dry air (CDA) gas supply; a pressurized deionized (DI) water supply; a pressure regulator with gauge, a Filterite MPTE-010-1/4CS 0.01 micron gas filter; 3 mass flow controllers (MFCs); an MFC control box; a Stable Gaseous Delivery (SGD) System (i.e., “Concentrator” in the diagram) and a relative humidity system (RHS) (RASIRC, San Diego, Calif.). Membranes using a fluorinated ion-exchange polymer prepared as an ammonium salt were utilized.
Operation of the decontamination apparatus can be understood with reference to FIG. 4. The CDA gas pressure was maintained at 25 psig with the pressure regulator. A 0.01 micron filter removed particulates from the gas stream. The MFCs controlled the flow of the carrier gas streams and the dilution gas stream. The RHS was used to add water gas to the gas stream. […] The water temperature was used to control the output of the humidifier. The valves (V-1, V-2, and V-3) were used to send either the dry CDA gas stream, the RHS gas stream, and/or SGD gas stream through the furnace or out to vent. TC-1 will be used to measure the temperature of the dry CDA gas stream. TC-2 will be used to measure gas temperature downstream of the RHS. TC-3 and TC-4 were used to measure the gas temperature downstream of the SGD. […]

bovine genomic DNA = system: bovine genomic DNA
Source text: as §1
Operation of the decontamination apparatus can be understood with reference to FIG. 4. The CDA gas pressure was maintained at 25 psig with the pressure regulator. A 0.01 micron filter removed particulates from the gas stream. The MFCs controlled the flow of the carrier gas streams and the dilution gas stream. […]
A PCR plate to be used for quantifying amplifiable DNA was prepared with three replicates at each target input level (i.e., ranging from 0 ng to 1,000 ng). In each instance, measured aliquots of an aqueous solution of bovine genomic DNA were added to individual wells of the plate, and then dried. […] Amplification reactions were carried out using procedures familiar to those of ordinary skill in the art, and the appearance of fluorescent signals monitored as a function of time in a real-time format.

bacterial samples = details: visible mist or fog present, droplets condensed onto the sample

## OO [Hydrogen Peroxide Gas, hydrogen peroxide]
E. coli; E. coli 1.7×10^7 cfu per spot, gas-phase H2O2 at 505 ppm and H2O at 2122 ppm for 60 minutes
  Growth on tryptic soy agar plates after H202 treatment: No Growth
E. coli; E. coli, gas-phase H2O2 505 ppm, 60 minutes
  number of viable bacteria after exposure: undetectable level
Bovine genomic DNA; sample containing the greatest amount of starting material
  reduction of amplifiable DNA: about 4 logs
Bovine genomic DNA; sample containing the lowest amount of starting material
  amplifiable DNA after treatment: completely undetectable
Bacterial samples
  reduction of the number of viable organisms: did not significantly reduce
